Test results from the supplement of paper PMC4862054.

Legend:
Conditions in all cases: 72 h
MDA-MB-231 = tested on: MDA-MB-231
Experimental: (§1)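 Drug sensitivity and resistance testing (DSRT) of breast cancer cell lines in 384-well plates, 5 concentrations in 10-fold dilutions over a compound-specific 10,000-fold range. After 72 h, cytotoxicity was read by CellTox Green fluorescence and viability by CellTiter-Glo luminescence (multiplexed), normalised to DMSO and benzethonium chloride controls. EC50 is the inflection point of the fitted dose-response curve (bottom asymptote free, so it can be relative for partial curves) and is censored at the highest tested concentration. Rows with DSS 0 (no meaningful response) were excluded.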

DU-4475 [1] = tested on: DU-4475
Experimental: as §1

CAL-51 [2] = tested on: CAL-51
Experimental: as §1

DU-4475 [3] = tested on: DU-4475; remark: listed apart in the source
How it was run: (§2)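 A 20 µl suspension of breast cancer cells was placed in 384-well plates that already contained compound at 5 concentrations in 10-fold steps across a compound-specific 10,000-fold range, and the plates were left for 72 h. CellTox Green fluorescence at 485/520 nm gave cell death, and CellTiter-Glo luminescence, read after 10 min at room temperature, gave viability. Each plate was normalised to 0.1 % DMSO and a positive kill control. EC50 was fitted from the curves and censored at the top concentration.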

CAL-51 [4] = tested on: CAL-51; remark: listed apart in the source
How it was run: as §2

HDQ-P1 [5] = tested on: HDQ-P1
How it was run: (§3)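 For viability, cells received 2.5 µl CellTiter-Blue for 2 h at 37 °C and fluorescence was read at 560/590 nm. Before this, breast cancer cell lines in 20 µl suspension had been incubated for 72 h on 384-well plates pre-loaded with compound dissolved in 5 µl medium. EC50 was obtained from a percent-inhibition dose-response fit censored at the highest concentration, after normalisation of each plate to vehicle and a positive kill control; rows with a zero drug sensitivity score were discarded.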

DU-4475 [6] = tested on: DU-4475; remark: listed apart in the source
How it was run: as §3

CAL-85-1 [7] = tested on: CAL-85-1
How it was run: as §3

HCC1937 [8] = tested on: HCC1937
How it was run: as §3

Hs578T = tested on: Hs578T
How it was run: as §3

MDA-MB-436 [9] = tested on: MDA-MB-436
Experimental: as §1

MDA-MB-468 [10] = tested on: MDA-MB-468
Experimental: as §1

BT-549 [11] = tested on: BT-549
Experimental: as §1

HDQ-P1 [12] = tested on: HDQ-P1; remark: listed apart in the source
How it was run: as §2

HCC1937 [13] = tested on: HCC1937; remark: listed apart in the source
How it was run: as §2

HCC1143 = tested on: HCC1143
How it was run: as §2

HCC1599 = tested on: HCC1599
How it was run: as §2

BT-474 = tested on: BT-474
How it was run: as §2

MDA-MB-436 [14] = tested on: MDA-MB-436; remark: listed apart in the source
How it was run: as §2

MFM-223 = tested on: MFM-223
How it was run: as §2

CAL-148 = tested on: CAL-148
How it was run: as §2

MDA-MB-468 [15] = tested on: MDA-MB-468; remark: listed apart in the source
How it was run: as §2

SK-BR-3 = tested on: SK-BR-3
How it was run: as §2

CAL-120 = tested on: CAL-120
How it was run: as §2

BT-549 [16] = tested on: BT-549; remark: listed apart in the source
How it was run: as §2

CAL-85-1 [17] = tested on: CAL-85-1; remark: listed apart in the source
How it was run: as §2

For `CCCS(=O)(=O)Nc1ccc(F)c(C(=O)c2c[nH]c3ncc(-c4ccc(Cl)cc4)cc23)c1F` [Vemurafenib], the “EC50, CellTox Green” value (MDA-MB-231) was over 10 µM, the “EC50, CellTox Green” value (DU-4475 [1]) was 421 nM and the “EC50, CellTox Green” value (CAL-51 [2]) was 21.9 nM. For the same compound, the “EC50, CellTiter-Glo” value (DU-4475 [3]) was 0.551 µM, the “EC50, CellTiter-Glo” value (CAL-51 [4]) was 1680 nM and the “EC50, CellTiter-Blue viability” value (HDQ-P1 [5]) was 3.68 µM. The “EC50, CellTiter-Blue viability” value (DU-4475 [6]) was 295 nM, the “EC50, CellTiter-Blue viability” value (CAL-85-1 [7]) was over 10 µM and the “EC50, CellTiter-Blue viability” value (HCC1937 [8]) was 7.82 µM. For the same compound, the “EC50, CellTiter-Blue viability” value (Hs578T) was 9.43 µM.
With `CC[C@H](C)C(=O)O[C@H]1C[C@H](O)C=C2C=C[C@H](C)[C@H](CC[C@@H](O)C[C@@H](O)CC(=O)O)[C@H]21` [Pravastatin] the “EC50, CellTox Green” value (MDA-MB-436 [9]) was 15.7 nM, the “EC50, CellTox Green” value (MDA-MB-468 [10]) was 5.47 µM and the “EC50, CellTox Green” value (BT-549 [11]) was over 10 µM. For the same compound, the “EC50, CellTox Green” value (CAL-51 [2]) was 3380 nM, the “EC50, CellTiter-Glo” value (HDQ-P1 [12]) was 4.74 µM and the “EC50, CellTiter-Glo” value (HCC1937 [13]) was 5.96 µM. For the same compound, the “EC50, CellTiter-Glo” value (HCC1143) was 2450 nM, the “EC50, CellTiter-Glo” value (HCC1599) was 3.06 µM and the “EC50, CellTiter-Glo” value (BT-474) was 2340 nM. The “EC50, CellTiter-Glo” value (MDA-MB-436 [14]) was 27.6 nM, the “EC50, CellTiter-Glo” value (MFM-223) was over 10 µM and the “EC50, CellTiter-Glo” value (DU-4475 [3]) was 6.59 µM. The “EC50, CellTiter-Glo” value (CAL-148) was 6.54 µM, the “EC50, CellTiter-Glo” value (MDA-MB-468 [15]) was 5.91 µM and the “EC50, CellTiter-Glo” value (SK-BR-3) was 3.82 µM. For the same compound, the “EC50, CellTiter-Glo” value (CAL-120) was 2310 nM, the “EC50, CellTiter-Glo” value (BT-549 [16]) was 2640 nM and the “EC50, CellTiter-Glo” value (CAL-51 [4]) was 78 nM. The “EC50, CellTiter-Glo” value (CAL-85-1 [17]) was 8.62 µM.
